Experimental data taken from patent publication US20170166558A1, “O-GLCNAC TRANSFERASE (OGT) INHIBITORS AND USES THEREOF” (President and Fellows of Harvard College, priority 2014, published 2017).

Legend:
OGT in CHO cells [1] = assay: Immunoblotting of global O-GlcNAcylation (RL2) in CHO cells; format: cell-based, Chinese hamster
Description: (§1) In vivo inhibition of glycosylation: For all immunoblotting experiments, CHO-K1 (CHO) cells were grown in F12-K media supplemented with 10% FBS and antibiotics at 37° C. in a 5% CO2 incubator. Cells were treated by adding indicated inhibitor in DMSO vehicle (0.5% final vehicle concentration) upon reaching 70% confluence. After indicated treatment length, cells were harvested by aspirating growth media and washing with ice cold 1× PBS. Cells were subsequently lysed in boiling 1% SDS/20 mM HEPES 7.9. After cooling to room temperature, 1 mM PMSF, 10 μM PUGNAC, 10 μM TMG and 1× Complete protease inhibitor cocktail were added to the solution. The mixture was sonicated and then subjected to a 5 minute incubation at 95° C. The samples were centrifuged for 15 minutes at 20,000×g and the supernatant was collected and the total protein was measured by BCA assay (BIO-RAD).
(§2) The sample was separated by SDS-PAGE (Bio-Rad 4-15%, Cat: 345-0028), transferred to a nitrocellulose membrane (iBlot, Invitrogen) and probed with the indicated antibody. Tyipcally, membranes were blocked with 4% BSA in 1× TBS+0.04% tween-20 for 1 hour before incubating with antibody (typically diluted 1:1000 in 4% BSA inlx TBS+0.04% tween-20) overnight at 4° C. Membranes were then washed three times with 1× TBS+0.04% tween-20 and incubated with secondary antibody (typically diluted 1:5000 in 4% BSA in 1× TBS+0.04% tween-20) for 1 hour at room temperature. Lastly, membranes were washed 3× with 1× TBS+0.04% tween-20 and imaged with ECL. D283-Med cells were treated as above but grown in F12-K media supplemented with 10% FBS and antibiotics. HEK, HeLa and LNCaP cells were treated as above but grown in RPMI media supplemented with 10% FBS and antibiotics.

[2] = tested on: CHO, HEK-293, HeLa and D283-Med cells; assay: Immunoblotting of global O-GlcNAcylation in various mammalian cell types; format: cell-based; details: 50 μM, 24 hours
Description: as §1
The sample was separated by SDS-PAGE (Bio-Rad 4-15%, Cat: 345-0028), transferred to a nitrocellulose membrane (iBlot, Invitrogen) and probed with the indicated antibody. Tyipcally, membranes were blocked with 4% BSA in 1× TBS+0.04% tween-20 for 1 hour before incubating with antibody (typically diluted 1:1000 in 4% BSA inlx TBS+0.04% tween-20) overnight at 4° C. […]

OGT in CHO cells [3] = assay: Markers of OGT inhibition in CHO cells (Nup62 mass shift, OGA levels, H2B-S112 O-GlcNAc); format: cell-based, Chinese hamster
Description: as §1, §2

[4] = tested on: cell surface glycans of CHO cells; assay: Lectin blots of cell surface glycans of CHO cells; format: cell-based, Chinese hamster; details: 50 μM, 24 hours
Description: Lectin blots were performed with the CHO-K1 cell lysate as prepared above. […] The biotin label on the lectins was visualized with incubation with Streptavidin-HRP (Pierce) followed by ECL detection and imaging.

CC(=O)N[C@@H]1[C@@H](OC(C)=O)[C@H](OC(C)=O)[C@@H](COC(C)=O)S[C@@H]1OC(C)=O [Ac4-5SGlcNAc, reference compound]
Onset of reduction of global O-GlcNAcylation (OGT in CHO cells [1]; 50 μM, 8-hour time course): only at four hours | Effect on global O-GlcNAcylation (OGT in CHO cells [1]; 24 hours, up to 50 μM): reduced global O-GlcNAcylation to a greater extent than OSMI-1 | Global O-GlcNAc levels in four cell lines [2]: reduce global O-GlcNAc levels in all four lines examined | Cellular OGA levels (OGT in CHO cells [3]): reduced cellular OGA | Changes in bands detected by ConA, PHA-L, ECL, GSL-I, PNA or DBA [4]: minimal changes | Changes in glycans detected by Jacalin, PHA-E and LCA [4]: dramatic changes
